The numbers were not newly measured in EP2136625B1, “USE OF A MEANS FOR THE SI[…] WEEDS, ALGAE, PHYTOPATHOGENIC BACTERIA, FUNGI, VIRUSES AND VIROIDS” (priority 2007, dated 2008), which cites them from elsewhere.

For the data set the following is noted: Methode EPA-FIFRA, Sonnenbarsch, 46 d.

Molecules are shown by their SMILES.

Regarding `CCCCCCCCCC[N+](C)(C)CCCCCCCCCC.[Cl-]` [DDAC, Didecyldimethylammoniumchlorid], the BCF was 81.
